Measured values: US6753329B2, “Inhibitors of cyclin-dependent kinases, compositions and uses related thereto” (GPC Biotech Inc., priority 2001, dated 2004)
pIC50, pKd: −log10 of the molar value. Like-named read-outs stand apart in the source and are kept apart here. Each block holds one molecule with its values, some of them ahead of it.

What was measured:
[1] = target: T1, CDK2/cyclinE (Homo sapiens, UniProt P24941); assay: Cdk2/cyclin E inhibition, glutathione-sepharose capture assay; assay type: biochemical; set-up: made in house; host or cells: Sf9 insect cells; details: 50 μM ATP, GST-Rb substrate; read-out: K2/E
Source text: (§1) Enzymes: Cdc2/cyclin B was obtained from commercial sources. Cdk2/his-cyclin Eshort was expressed in Sf9 cells. Cdk2/cyclin A, cdk4/cyclin D1, and cdk6/cyclin D2 were expressed in Sf9 cells. Protein kinase A (catalytic subunit, from bovine heart) and protein kinase C (mixed isozymes from rat brain) were obtained from commercial sources.
(§2) Substrates: Histone H1 was from commercial sources. GST-Rb is glutathione-S-transferase fused to the N-terminal of residues 379-928 of the Rb protein.
(§3) Cdk2/cyclin E, Cdk4/cyclin D1, and Cdk6/cyclin D2 activity was determined using a glutathione-sepharose capture assay. The enzymes were expressed in Sf9 insect cells as heterodimers, and the substrate (GST-Rb) was glutathione-S-transferase fused to residues 379 to 928 of Rb retinoblastoma protein, expressed in E. coli. The assay solution contained 50 mM Tris.HCl, 10 mM MgCl2, 1 mM dithiothreitol, 50 μM adenosine triphosphate, 2 μCi [γ-^33P]adenosine triphosphate, 10% dimethylsulfoxide (from compounds), pH 7.5, 40 µg GST-Rb, and enzyme in a 100 μL volume. Compounds were added at various concentrations between 1 nM and 10 μM. The reaction was allowed to proceed for 15 min at 30° C. and was stopped by the addition of 70 μL of stop solution (237 mM disodium ethylenediamine tetraacetate, 105 mM adenosine triphosphate, pH 8.0). The GST-Rb was captured by binding to glutathione-sepharose bead (Amersham) for 110 min, and the suspension was filtered through a glass fiber filter. After washing the retained beads five time with phosphate-buffered saline containing 0.3% (w/v) Tween-20, the amount of ^33P incorporated was determined by scintillation counting after adding 100 μL scintillant. Relative activity was determined by dividing the amount of radioactivity incorporated in the presence of compound by the amount of radioactivity incorporated in a control experiment containing DMSO alone but no compound. The background radioactivity, determined in an experiment containing 50 mM disodium ethylenediamine tetraacetate in place of compound, was subtracted from all results before calculations.

[2] = target: T2, Cdc2/cyclin B (Homo sapiens, UniProt P06493); assay: Cdc2/cyclin B inhibition, TCA precipitation assay; assay type: biochemical; details: 50 μM ATP, Histone H1 substrate
T2 construct: purchased
Experimental: as §1
Assays: Cdc2/cyclinB activity was determined by measuring incorporation of radioactivity from adenosine [γ-^32P]triphosphate into Histone H1 using a TCA precipitation assay. Cdc2/cyclin B kinase and Histone H1 were obtained from commercial sources. The final assay solution contained 50 mM Tris.HCl, 10 mM MgCl2, 1 mM dithiothreitol, 50 μM adenosine triphosphate, 2 μCi ^32P, 10% dimethylsulfoxide (from compounds), pH 7.5, 20 μg Histone H1, 6 U enzyme in a 50 μL volume. Compounds were added at various concentrations between 1 nM and 10 μM. The reaction was started with the addition of enzyme, allowed to proceed for 20 min at 30° C., and stopped by the addition of 20 μL of stop solution (237 mM disodium ethylenediamine tetraacetate, 105 mM adenosine triphosphate, pH 8.0). The protein was precipitated by the addition of 35 μL 70% (w/v) trichloroacetic acid, and the precipitate was captured on a 96-well glass fiber filter plate (Millipore, Inc.), which had been wet with 25% (w/v) trichloroacetic acid. The filter was washed ten times with 25% (w/v) trichloroacetic acid, and the amount of incorporated ^32P was determined by scintillation counting after adding 100 μL scintillant (Microscint 20, Packard Instruments). Relative activity was determined by dividing the amount of radioactivity incorporated in the presence of compound by the amount of radioactivity incorporated in a control experiment containing DMSO alone but no compound. The background radioactivity, determined in an experiment containing 50 mM EDTA in place of compound, was subtracted from all results before calculations.
P=min+(max−min)(1/(1+(IC50/[I])^s)) (1)
where P=1—relative activity is relative inhibition, [I] is concentration of compound, max and min are the maximum and minimum relative inhibition (1 and 0, respectively) and s is the so-called Hill slope.

[3] = target: T3, Cdk2/cyclin A (Homo sapiens, UniProt P24941); assay: Cdk2/cyclin A inhibition assay; assay type: biochemical; details: read-out: K2/A
T3 construct: made in house; host or cells: Sf9 cells
Source text: as §1

[4] = target: T4, Cdk4/cyclin D1 (Homo sapiens, UniProt P11802); assay: Cdk4/cyclin D1 inhibition, glutathione-sepharose capture assay; assay type: biochemical; details: read-out: K4/D1
T4 construct: made in house; host or cells: Sf9 insect cells
Source text: as §1, §2, §3

[5] = target: T5, Cdk6/cyclin D2 (Homo sapiens, UniProt Q00534); assay: Cdk6/cyclin D2 inhibition, glutathione-sepharose capture assay; assay type: biochemical; details: 50 μM ATP, GST-Rb substrate; read-out: K6/D2
T5 construct: made in house; host or cells: Sf9 insect cells
Source text: as §1, §2, §3

[6] = target: c-Abl (Homo sapiens, UniProt P00519); assay: c-Abl inhibition; assay type: biochemical
[7] = target: T6, Protein kinase A (catalytic subunit, from bovine heart) (Bos taurus, UniProt P00517); assay: Protein kinase A inhibition, TCA precipitation assay; assay type: biochemical; details: 12 μM ATP, Histone H1; read-out: PKA
T6 construct: Protein kinase A (catalytic subunit, from bovine heart); purchased; host or cells: bovine heart
Experimental: as §1
Protein kinase C and protein kinase A were assayed using a TCA precipitation assay with Histone H1 as a substrate. For protein kinase A, the final assay contained 50 mM Tris, 10 mM MgCl2, 1 mM dithiothreitol, pH 7.5, 12 μM adenosine triphosphate, 10% (v/v) dimethylsulfoxide (from compounds), 20 μg Histone H1, 2 μCi [γ-^32P] adenosine triphosphate, 0.2 U protein kinase A in a 100 μL assay. A protein kinase C assay contained 50 mM Tris, 10 mM MgCl2, 1 mM dithiothreitol, 0.8 mM CaCl2, pH 7.5, 5 μM adenosine triphosphate, 10% (v/v) dimethylsulfoxide (from compounds), 20 μg Histone H1, 2 μCi [γ-^32P] adenosine triphosphate, 0.01 U protein. kinase C in a 50 μL assay. The assays were started by the addition of enzyme, allowed to react for 10 min at 30° C., and stopped by adding 0.4 volumes of 237 mM disodium ethylenediamine tetraacetate, 105 mM adenosine triphosphate, pH 8.0. The protein was precipitated from the stopped reaction by adding 0.5 volume 75% (w/v) trichloroacetic acid and captured by filtering through a 96-well glass fiber filtration apparatus (Millipore). The filters were washed ten times with 25% (w/v) trichloroacetic acid, and the amount of incorporated [^32P]phosphate was determined by adding 100 μl Microscint and scintillation counting.

[8] = target: T1, CDK2/cyclinE; assay: BIACORE SPR binding of CDK2/cyclinE to compound-loaded CM5 chip; details: 22° C., compound coupled to CM5 chip, Langmuir 1:1 model
Experimental: The affinity of chemical compounds to their corresponding binding partners may be determined, for example, using a BIACORE™ assay system (Biacore AB, Uppsala, SE). Other systems yielding a qualitatively similar result, such as, for example, those developed by Affinity Sensors (Cambridge, UK), will be readily apparent to those skilled in the art.
In a representative procedure, the binding of Compound R to its known binding partners CDK2/cyclinE was analyzed. The analysis was performed on a BLACORE 2000 SPR-Biosensor at 22° C. in a running buffer containing 20 mM HEPES (pH 7.4), 150 mM NaCl, 1 mM DTT and 0.005% Tween 20 (protein grade, Calbiochem). A 10 μM solution of Compound R was coupled at pH 8.0 to the dextrane-surface of a CM5 sensor-chip (research grade) via amide coupling chemistry. […] The association and dissociation of the CDK2/cyclinE complex onto the CM5-Compound R-loaded chip surface was measured at a flow rate of 30 μl/min. […]
The data were analyzed using the Bioevaluation software version 3.1 (Biacore AB, Uppsala, SE). […] The association and dissociation rates were determined separately or globally using a Langmuir 1:1 binding model. The affinities (KD) were calculated using the equation: […]

T4 sequence (P11802 whole entry, species assumed): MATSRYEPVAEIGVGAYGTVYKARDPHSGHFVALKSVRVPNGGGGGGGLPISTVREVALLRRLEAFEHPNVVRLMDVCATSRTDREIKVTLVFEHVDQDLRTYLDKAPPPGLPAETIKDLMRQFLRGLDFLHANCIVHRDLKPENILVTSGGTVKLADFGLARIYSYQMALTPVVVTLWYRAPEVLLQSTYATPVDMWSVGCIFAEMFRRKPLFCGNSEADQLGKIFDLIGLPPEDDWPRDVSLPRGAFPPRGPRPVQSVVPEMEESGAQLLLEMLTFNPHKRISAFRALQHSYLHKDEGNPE
T4 sequence (P24385 whole entry partner, species assumed): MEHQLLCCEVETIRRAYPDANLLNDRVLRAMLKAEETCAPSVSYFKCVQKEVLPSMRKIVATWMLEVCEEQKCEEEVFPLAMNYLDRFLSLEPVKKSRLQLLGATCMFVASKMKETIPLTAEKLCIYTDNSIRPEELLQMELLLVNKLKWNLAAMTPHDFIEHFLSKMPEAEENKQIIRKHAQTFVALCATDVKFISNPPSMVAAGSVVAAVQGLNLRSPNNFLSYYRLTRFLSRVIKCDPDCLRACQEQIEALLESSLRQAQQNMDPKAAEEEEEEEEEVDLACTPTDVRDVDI
T5 sequence (Q00534 whole entry, species assumed): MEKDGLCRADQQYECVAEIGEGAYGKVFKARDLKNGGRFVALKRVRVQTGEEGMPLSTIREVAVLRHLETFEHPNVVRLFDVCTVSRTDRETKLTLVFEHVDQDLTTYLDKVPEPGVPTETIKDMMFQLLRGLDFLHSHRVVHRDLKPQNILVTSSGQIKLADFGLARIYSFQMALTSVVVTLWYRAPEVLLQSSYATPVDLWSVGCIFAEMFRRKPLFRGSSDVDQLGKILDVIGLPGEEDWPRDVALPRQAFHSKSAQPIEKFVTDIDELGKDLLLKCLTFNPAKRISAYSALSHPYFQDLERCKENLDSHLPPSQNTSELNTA
T5 sequence (P30279 whole entry partner, species assumed): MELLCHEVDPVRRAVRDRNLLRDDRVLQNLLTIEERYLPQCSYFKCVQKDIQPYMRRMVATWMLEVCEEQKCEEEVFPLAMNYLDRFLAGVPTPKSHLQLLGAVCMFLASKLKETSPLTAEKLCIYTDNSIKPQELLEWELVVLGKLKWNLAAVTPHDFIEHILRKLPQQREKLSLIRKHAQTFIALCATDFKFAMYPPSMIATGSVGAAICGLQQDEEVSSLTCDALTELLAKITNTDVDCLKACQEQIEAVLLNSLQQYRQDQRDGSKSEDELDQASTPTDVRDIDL
T2 sequence (P06493 whole entry, species assumed): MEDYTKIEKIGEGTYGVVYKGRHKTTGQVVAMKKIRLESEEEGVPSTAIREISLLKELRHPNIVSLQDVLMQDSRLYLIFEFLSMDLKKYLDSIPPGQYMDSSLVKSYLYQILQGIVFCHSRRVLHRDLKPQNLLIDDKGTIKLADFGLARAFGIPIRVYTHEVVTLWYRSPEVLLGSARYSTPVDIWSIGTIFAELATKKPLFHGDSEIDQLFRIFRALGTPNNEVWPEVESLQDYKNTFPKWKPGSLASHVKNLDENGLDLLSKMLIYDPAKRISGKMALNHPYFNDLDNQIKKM
T2 sequence (P14635 whole entry partner, species assumed): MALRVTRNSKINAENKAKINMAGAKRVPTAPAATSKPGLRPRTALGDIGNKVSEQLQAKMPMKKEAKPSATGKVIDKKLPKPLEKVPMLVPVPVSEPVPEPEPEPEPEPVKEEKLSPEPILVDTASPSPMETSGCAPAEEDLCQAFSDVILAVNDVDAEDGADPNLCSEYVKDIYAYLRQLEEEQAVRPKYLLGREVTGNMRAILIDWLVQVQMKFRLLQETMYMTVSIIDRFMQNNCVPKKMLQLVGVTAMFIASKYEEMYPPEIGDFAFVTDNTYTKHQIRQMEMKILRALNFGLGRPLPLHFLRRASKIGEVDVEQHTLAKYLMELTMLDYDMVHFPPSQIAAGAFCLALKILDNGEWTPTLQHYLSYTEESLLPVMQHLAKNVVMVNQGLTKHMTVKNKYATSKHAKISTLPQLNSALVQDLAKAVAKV
Sequence of c-Abl (P00519 whole entry): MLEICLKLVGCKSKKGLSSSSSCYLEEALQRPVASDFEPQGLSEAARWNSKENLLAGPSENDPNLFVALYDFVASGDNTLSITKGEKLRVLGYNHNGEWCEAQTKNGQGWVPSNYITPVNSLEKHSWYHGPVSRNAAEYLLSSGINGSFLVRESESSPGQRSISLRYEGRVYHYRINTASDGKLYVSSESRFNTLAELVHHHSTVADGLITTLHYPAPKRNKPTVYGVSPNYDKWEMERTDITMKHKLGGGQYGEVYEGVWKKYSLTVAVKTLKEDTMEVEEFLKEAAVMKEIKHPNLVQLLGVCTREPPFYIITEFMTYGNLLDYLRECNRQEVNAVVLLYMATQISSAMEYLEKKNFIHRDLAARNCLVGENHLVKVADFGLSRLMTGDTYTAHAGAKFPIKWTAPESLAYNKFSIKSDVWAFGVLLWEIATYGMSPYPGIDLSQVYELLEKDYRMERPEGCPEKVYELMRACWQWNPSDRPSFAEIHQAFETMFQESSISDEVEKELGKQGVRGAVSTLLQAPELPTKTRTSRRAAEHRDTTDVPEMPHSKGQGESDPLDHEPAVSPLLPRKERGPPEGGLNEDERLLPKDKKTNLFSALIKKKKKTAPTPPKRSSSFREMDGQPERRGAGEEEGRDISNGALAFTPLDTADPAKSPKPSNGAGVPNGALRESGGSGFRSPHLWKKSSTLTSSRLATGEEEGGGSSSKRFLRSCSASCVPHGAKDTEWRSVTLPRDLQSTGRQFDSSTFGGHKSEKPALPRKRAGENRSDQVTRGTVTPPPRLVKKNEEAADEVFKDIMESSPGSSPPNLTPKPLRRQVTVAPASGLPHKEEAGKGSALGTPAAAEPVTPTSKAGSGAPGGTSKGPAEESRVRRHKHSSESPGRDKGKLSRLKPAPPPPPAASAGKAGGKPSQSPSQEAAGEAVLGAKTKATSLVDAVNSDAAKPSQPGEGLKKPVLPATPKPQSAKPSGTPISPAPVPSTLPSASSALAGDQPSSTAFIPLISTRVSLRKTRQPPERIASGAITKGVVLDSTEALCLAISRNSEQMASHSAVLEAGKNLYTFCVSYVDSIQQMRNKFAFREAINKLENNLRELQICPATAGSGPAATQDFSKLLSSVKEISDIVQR

Structure (SMILES): CC(C)c1nn(-c2c(Cl)cc(Cl)cc2Cl)c2nc(Cc3ccc(OCCN4CCOCC4)cc3)[nH]c(=O)c12 [A]
pIC50 [1]: > 7.00
pIC50 [2]: > 6.00
pIC50 [3]: > 7.00
pIC50 ([4]; 50 μM ATP, GST-Rb substrate): > 6.00
pIC50 [4]: > 6.00
pIC50 [5]: > 6.00

Structure (SMILES): CC(C)c1nn(-c2c(Cl)cccc2Cl)c2nc(Cc3ccc(OP(=O)(O)O)cc3)[nH]c(=O)c12 [B]
pIC50 [1]: > 8.00
pIC50 [2]: > 7.00
pIC50 [3]: > 7.00
pIC50 ([4]; 50 μM ATP, GST-Rb substrate): > 5.00

Structure (SMILES): CC(C)c1nn(-c2c(Cl)cccc2Cl)c2nc(Cc3ccc(O)c(CN4CCN(C(C)C)CC4)c3)[nH]c(=O)c12 [Compound C]
pIC50 [1]: > 7.00
pIC50 [2]: > 6.00
pIC50 [3]: > 7.00
pIC50 [6]: < 5.00
pIC50 [7]: < 5.00
pIC50 ([4]; 50 μM ATP, GST-Rb substrate): > 6.00

Structure (SMILES): O=C(Nc1cccc2c1C(=O)c1c-2n[nH]c1-c1ccc(OCCN2CCCC2)cc1)NN1CCOCC1 [Compound I]
pIC50 [1]: > 7.00
pIC50 [2]: > 7.00
pIC50 [3]: > 7.00
pIC50 ([4]; 50 μM ATP, GST-Rb substrate): > 8.00

Structure (SMILES): Cc1cc(-c2[nH]nc3c2C(=O)c2c(NC(=O)NN4CCN(C)CC4)cccc2-3)ccc1OCCN1CCCC1 [Compound P]
pIC50 [1]: > 7.00

pKd [8]: 8.10
Structure (SMILES): CC(C)c1nn(-c2c(Cl)cc(Cl)cc2Cl)c2nc(Cc3ccc(OC(C)(C)C(=O)NCCOCCOCCOCCOCCOCCN)cc3)[nH]c(=O)c12 [Compound R]

Structure (SMILES): CC(C)c1nn(-c2c(Cl)cc(Cl)cc2Cl)c2nc(Cc3ccc(NS(=O)(=O)CCCN4CCOCC4)cc3)[nH]c(=O)c12 [D]
pIC50 [1]: > 7.00
pIC50 [2]: > 6.00
pIC50 [3]: > 7.00
pIC50 ([4]; 50 μM ATP, GST-Rb substrate): > 6.00

Structure (SMILES): CC(C)N1CCN(CCOc2ccc(-c3[nH]nc4c3C(=O)c3c(NC(=O)NN5CCOCC5)cccc3-4)cc2)CC1 [E]
pIC50 [1]: > 8.00
pIC50 [2]: > 7.00
pIC50 [3]: > 8.00
pIC50 [6]: > 5.00
pIC50 [7]: > 5.00
pIC50 ([4]; 50 μM ATP, GST-Rb substrate): > 8.00
pIC50 [4]: > 8.00
pIC50 [5]: > 8.00

Structure (SMILES): CN1CCN(NC(=O)Nc2cccc3c2C(=O)c2c-3n[nH]c2-c2ccc(OCCN3CCCC3)cc2)CC1 [F]
pIC50 [1]: > 7.00
pIC50 [2]: > 7.00
pIC50 [3]: > 7.00
pIC50 ([4]; 50 μM ATP, GST-Rb substrate): > 8.00
pIC50 [4]: > 8.00
pIC50 [5]: > 8.00

Structure (SMILES): CCCN(CCOc1ccc(-c2[nH]nc3c2C(=O)c2c(NC(=O)NN4CCOCC4)cccc2-3)cc1)CC1CC1 [G]
pIC50 [1]: > 7.00
pIC50 [2]: > 7.00
pIC50 [3]: > 7.00
pIC50 [6]: < 5.00
pIC50 [7]: < 5.00
pIC50 ([4]; 50 μM ATP, GST-Rb substrate): > 8.00

Structure (SMILES): O=C(Nc1cccc2c1C(=O)c1c-2n[nH]c1-c1ccc(OCCN(CCO)CCO)cc1)NN1CCOCC1 [H]
pIC50 [1]: > 7.00
pIC50 [2]: > 7.00
pIC50 [3]: > 7.00
pIC50 ([4]; 50 μM ATP, GST-Rb substrate): > 7.00

Structure (SMILES): O=C(Nc1cccc2c1C(=O)c1c-2n[nH]c1-c1ccc(OP(=O)(O)O)cc1)NN1CCOCC1 [J]
pIC50 [1]: > 7.00

Structure (SMILES): CC(C)N1CCN(Cc2cc(-c3[nH]nc4c3C(=O)c3c(NC(=O)NN5CCOCC5)cccc3-4)ccc2O)CC1 [K]
pIC50 [1]: > 7.00

Structure (SMILES): Cc1cc(OCCN2CCCC2)ccc1-c1[nH]nc2c1C(=O)c1c(NC(=O)NN3CCN(C)CC3)cccc1-2 [L]
pIC50 [1]: > 7.00
pIC50 [2]: > 7.00
pIC50 ([4]; 50 μM ATP, GST-Rb substrate): > 7.00

Structure (SMILES): CN1CCN(NC(=O)Nc2cccc3c2C(=O)c2c-3n[nH]c2-c2ccc(OCCN3CCC[C@H]3CO)cc2)CC1 [M]
pIC50 [1]: > 7.00

Structure (SMILES): CN1CCN(NC(=O)Nc2cccc3c2C(=O)c2c-3n[nH]c2-c2ccc(OCCN(CCO)CCO)cc2)CC1 [N]
pIC50 [1]: > 7.00
pIC50 [2]: > 8.00

Structure (SMILES): CN1CCN(NC(=O)Nc2cccc3c2C(=O)c2c-3n[nH]c2-c2ccc(OCCN3CC[C@H](O)C3)cc2)CC1 [O]
pIC50 [1]: > 7.00

Structure (SMILES): CN1CCN(NC(=O)Nc2cccc3c2C(=O)c2c-3n[nH]c2-c2ccc(OCCN3CCOCC3)cc2)CC1 [Q]
pIC50 [1]: > 8.00
pIC50 [2]: > 7.00
pIC50 [3]: > 7.00
pIC50 ([4]; 50 μM ATP, GST-Rb substrate): > 8.00
pIC50 [4]: > 7.00
pIC50 [5]: > 7.00
